# Experimental data taken from PubChem BioAssay (NCI).
#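 Here, GI50 denotes the concentration required for 50% inhibition of growth. TGI: total growth inhibition.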
# Assays:
# Test in all cases: growth of human tumour cells (NCI), 384-well format
# 786-0 renal = tested on: 786-0 renal
# ACHN renal = tested on: ACHN renal
# CAKI-1 renal = tested on: CAKI-1 renal
# EKVX NSCLC = tested on: EKVX NSCLC
# HCT-116 colon = tested on: HCT-116 colon
# HL-60(TB) leukemia = tested on: HL-60(TB) leukemia
# LOX IMVI melanoma = tested on: LOX IMVI melanoma
# MDA-MB-435 melanoma = tested on: MDA-MB-435 melanoma
# NCI-H226 lung = tested on: NCI-H226 lung
# OVCAR-5 ovarian = tested on: OVCAR-5 ovarian
# SN12C renal = tested on: SN12C renal
# SNB-19 CNS = tested on: SNB-19 CNS
# U251 glioblastoma = tested on: U251 glioblastoma
smiles,measurement,setting,value
Cc1cc(C)c(CNC(=O)c2cc(-c3ccc(CN4CCOCC4)cc3)cc3c2cnn3C2CCCC2)c(=O)[nH]1,GI50,786-0 renal,5.82 µM
same,TGI,786-0 renal,16.9 µM
same,GI50,ACHN renal,10.3 µM
same,TGI,ACHN renal,23.9 µM
same,GI50,CAKI-1 renal,9.04 µM
same,TGI,CAKI-1 renal,22.2 µM
same,GI50,EKVX NSCLC,3.41 µM
same,TGI,EKVX NSCLC,21.6 µM
same,GI50,HCT-116 colon,7.13 µM
same,TGI,HCT-116 colon,19.5 µM
same,GI50,HL-60(TB) leukemia,4.13 µM
same,TGI,HL-60(TB) leukemia,12.6 µM
same,GI50,LOX IMVI melanoma,7.45 µM
same,TGI,LOX IMVI melanoma,20.7 µM
same,GI50,MDA-MB-435 melanoma,12 µM
same,TGI,MDA-MB-435 melanoma,25.3 µM
same,GI50,NCI-H226 lung,12.9 µM
same,TGI,NCI-H226 lung,25.9 µM
same,GI50,OVCAR-5 ovarian,13.1 µM
same,TGI,OVCAR-5 ovarian,26 µM
same,GI50,SN12C renal,12.3 µM
same,TGI,SN12C renal,24.9 µM
same,GI50,SNB-19 CNS,9.84 µM
same,TGI,SNB-19 CNS,23.4 µM
same,GI50,U251 glioblastoma,7.69 µM
same,TGI,U251 glioblastoma,20.2 µM
